Measurements: the CheMixHub viscosity set
Several values for one entry are separate records, joined by “and”; a condition that tells them apart may be missing. Equal values may be shown once.

Assay: xn = mol fraction of the nth substance listed

CCC(=O)O + c1ccccc1
101.33 kPa
Settings | viscosity
293.15 K, x1 = 0.2 | 0.66 mPa·s and 0.66 mPa·s
293.15 K, x1 = 0.4 | 0.7 mPa·s
293.15 K, x1 = 0.5 | 0.734 mPa·s and 0.734 mPa·s
293.15 K, x1 = 0.8 | 0.889 mPa·s
303.15 K, x1 = 0.2 | 0.575 mPa·s
303.15 K, x1 = 0.4 | 0.61 mPa·s
303.15 K, x1 = 0.5 | 0.639 mPa·s
303.15 K, x1 = 0.8 | 0.774 mPa·s
308.15 K, x1 = 0.0534 | 0.5535 mPa·s
308.15 K, x1 = 0.1063 | 0.5551 mPa·s
308.15 K, x1 = 0.1575 | 0.5617 mPa·s
308.15 K, x1 = 0.2 | 0.542 mPa·s and 0.542 mPa·s
308.15 K, x1 = 0.2079 | 0.5677 mPa·s
308.15 K, x1 = 0.3318 | 0.5849 mPa·s
308.15 K, x1 = 0.4 | 0.575 mPa·s
308.15 K, x1 = 0.4118 | 0.5998 mPa·s
308.15 K, x1 = 0.5 | 0.602 mPa·s and 0.602 mPa·s
308.15 K, x1 = 0.5132 | 0.6282 mPa·s
308.15 K, x1 = 0.6132 | 0.6564 mPa·s
308.15 K, x1 = 0.7107 | 0.7012 mPa·s
308.15 K, x1 = 0.8 | 0.729 mPa·s
308.15 K, x1 = 0.8085 | 0.7408 mPa·s
308.15 K, x1 = 0.8566 | 0.7662 mPa·s
308.15 K, x1 = 0.9045 | 0.8033 mPa·s
308.15 K, x1 = 0.9524 | 0.8347 mPa·s
318.15 K, x1 = 0.2 | 0.48 mPa·s
318.15 K, x1 = 0.4 | 0.51 mPa·s
318.15 K, x1 = 0.5 | 0.533 mPa·s
318.15 K, x1 = 0.8 | 0.643 mPa·s

Nc1cccc(Cl)c1 + NCCO
Settings | viscosity [mPa·s]
308.15 K, 100 kPa, x1 = 0.3619 | 8.885

Nc1cccc(Cl)c1 + CCOCCO
303.15 K, 101 kPa
Settings | viscosity [mPa·s]
x1 = 0.0966 | 2.028
x1 = 0.1696 | 2.159
x1 = 0.2725 | 2.333
x1 = 0.3613 | 2.473
x1 = 0.4791 | 2.643
x1 = 0.5648 | 2.755
x1 = 0.68 | 2.897
x1 = 0.7804 | 3.008
x1 = 0.8884 | 3.121

CCC(=O)O + CC#N
101 kPa
Settings | viscosity [mPa·s]
298.15 K, x1 = 0.0727 | 0.3871
298.15 K, x1 = 0.1499 | 0.4326
298.15 K, x1 = 0.2322 | 0.49
298.15 K, x1 = 0.3199 | 0.5588
298.15 K, x1 = 0.4136 | 0.6378
298.15 K, x1 = 0.5141 | 0.7247
298.15 K, x1 = 0.6221 | 0.8156
298.15 K, x1 = 0.7383 | 0.9048
298.15 K, x1 = 0.864 | 0.9833
298.35 K, x1 = 0.00118 | 0.3554
298.36 K, x1 = 0.000675 | 0.3524
298.37 K, x1 = 0.001631 | 0.3536
299.33 K, x1 = 0.002851 | 0.3563
301.03 K, x1 = 0.00118 | 0.3451
301.05 K, x1 = 0.000675 | 0.3437
301.96 K, x1 = 0.002851 | 0.3511
302.04 K, x1 = 0.001631 | 0.3472
303.03 K, x1 = 0.00118 | 0.338
303.04 K, x1 = 0.000675 | 0.3378
304.04 K, x1 = 0.001631 | 0.3356
304.09 K, x1 = 0.002851 | 0.3401
305.01 K, x1 = 0.00118 | 0.3316
305.04 K, x1 = 0.000675 | 0.3319
305.99 K, x1 = 0.002851 | 0.3324
306.1 K, x1 = 0.001631 | 0.3288
308.03 K, x1 = 0.00118 | 0.3228
308.04 K, x1 = 0.000675 | 0.3223
308.15 K, x1 = 0.0727 | 0.3411
308.15 K, x1 = 0.1499 | 0.3841
308.15 K, x1 = 0.2322 | 0.4373
308.15 K, x1 = 0.3199 | 0.4999
308.15 K, x1 = 0.4136 | 0.5703
308.15 K, x1 = 0.5141 | 0.646
308.15 K, x1 = 0.6221 | 0.7227
308.15 K, x1 = 0.7383 | 0.7943
308.15 K, x1 = 0.864 | 0.8513
309 K, x1 = 0.002851 | 0.3236
309.06 K, x1 = 0.001631 | 0.3198
311.01 K, x1 = 0.000675 | 0.3134
311.01 K, x1 = 0.00118 | 0.3139
311.96 K, x1 = 0.002851 | 0.3161
312.06 K, x1 = 0.001631 | 0.3112
318.15 K, x1 = 0.0727 | 0.3007
318.15 K, x1 = 0.1499 | 0.345
318.15 K, x1 = 0.2322 | 0.3948
318.15 K, x1 = 0.3199 | 0.4493
318.15 K, x1 = 0.4136 | 0.5074
318.15 K, x1 = 0.5141 | 0.567
318.15 K, x1 = 0.6221 | 0.6251
318.15 K, x1 = 0.7383 | 0.6772
318.15 K, x1 = 0.864 | 0.7168

NN + O
Settings | viscosity [mPa·s]
293.15 K, 101.3 kPa, x1 = 0.0526 | 1.11
293.15 K, 101.3 kPa, x1 = 0.1045 | 1.26
293.15 K, 101.3 kPa, x1 = 0.1502 | 1.4
293.15 K, 101.3 kPa, x1 = 0.2047 | 1.57
293.15 K, 101.3 kPa, x1 = 0.3013 | 1.8
293.15 K, 101.3 kPa, x1 = 0.3512 | 1.88
293.15 K, 101.3 kPa, x1 = 0.3967 | 1.96
293.15 K, 101.3 kPa, x1 = 0.4526 | 1.92
293.15 K, 101.3 kPa, x1 = 0.4938 | 1.89
293.15 K, 101.3 kPa, x1 = 0.5997 | 1.71
293.15 K, 101.3 kPa, x1 = 0.7032 | 1.51
293.15 K, 101.3 kPa, x1 = 0.8022 | 1.28
293.15 K, 101.3 kPa, x1 = 0.8961 | 1.11
303 K, 101 kPa, x1 = 0.1 | 1.009
303 K, 101 kPa, x1 = 0.2 | 1.181
303 K, 101 kPa, x1 = 0.3 | 1.357
303 K, 101 kPa, x1 = 0.4 | 1.364
303 K, 101 kPa, x1 = 0.55 | 1.43
303 K, 101 kPa, x1 = 0.6 | 1.41
303 K, 101 kPa, x1 = 0.7 | 1.34
303 K, 101 kPa, x1 = 0.8 | 1.21
303 K, 101 kPa, x1 = 0.9 | 1.02
313 K, 101 kPa, x1 = 0.1 | 0.869
313 K, 101 kPa, x1 = 0.2 | 0.989
313 K, 101 kPa, x1 = 0.3 | 1.138
313 K, 101 kPa, x1 = 0.4 | 1.148
313 K, 101 kPa, x1 = 0.55 | 1.19
313 K, 101 kPa, x1 = 0.6 | 1.17
313 K, 101 kPa, x1 = 0.7 | 1.1
313 K, 101 kPa, x1 = 0.8 | 0.98
313 K, 101 kPa, x1 = 0.9 | 0.83

[F-].[Na+] + O
viscosity [mPa·s], 101 kPa
Settings | x1 = 0.0009 | x1 = 0.0018 | x1 = 0.002 | x1 = 0.0027 | x1 = 0.0036 | x1 = 0.005 | x1 = 0.009
303.15 K | 0.809 | 0.82 | 0.819 | 0.826 | 0.835 | 0.853 | 0.896
308.15 K | 0.734 | 0.746 | 0.747 | 0.755 | 0.761 | 0.775 | 0.81
313.15 K | 0.667 | 0.682 | – | 0.688 | 0.694 | 0.707 | 0.738
318.15 K | 0.61 | 0.621 | 0.623 | 0.629 | 0.635 | 0.648 | 0.675

CCCCCCCCCCCCCC[P+](CCCCCC)(CCCCCC)CCCCCC.c1c[n-]nn1 + CCCCCCCCCCCCCC[P+](CCCCCC)(CCCCCC)CCCCCC.O=S(=O)([N-]S(=O)(=O)C(F)(F)F)C(F)(F)F
viscosity [mPa·s], 100 kPa
Settings | x1 = 0.098 | x1 = 0.201 | x1 = 0.3 | x1 = 0.401 | x1 = 0.5 | x1 = 0.599 | x1 = 0.7 | x1 = 0.797 | x1 = 0.901
293.15 K | 425 | 473 | 495 | 465 | 502 | 539 | 533 | 547 | 553
298.15 K | 313 | 348 | 362 | 338 | 363 | 390 | 385 | 393 | 397
303.15 K | 236 | 261 | 270 | 251 | 270 | 288 | 284 | 289 | 291
308.15 K | 181 | 200 | 207 | 191 | 204 | 218 | 214 | 217 | 220
313.15 K | 142 | 156 | 160 | 148 | 158 | 168 | 165 | 167 | 168
318.15 K | 112 | 124 | 127 | 117 | 124 | 132 | 129 | 131 | 132
323.15 K | 91 | 100 | 102 | 94 | 100 | 106 | 103 | 104 | 106
